Laboratory results from US20100048545A1, “Compounds and Compositions for Use in the Prevention and Treatment of Disorders of Fat Metabolism and Obesity” (INNODIA INC., priority 2006, published 2010).
Read-outs that look alike come from different tables or passages of the source.

Assays:
[1] = tested on: DIO-mice; type: in vivo
Description: The objective of this study was to evaluate the effect of chronic administration of 4-hydroxyisoleucine (4-OH, compound 14a) on food consumption and body weight gain of DIO-mice. Both parameters were monitored for 1 week prior to the commencement of treatment, then for the 77 days of treatment and for an additional 12 days post-treatment.
C57BL/6 mice were received at 7-8 weeks of age and fed a high fat diet (60% of calories from fat) for several weeks. A total of 32 animals were used in the study. The animals were distributed into 4 groups (3 treated, 1 control group, all on high fat diet). Each group was composed of 8 animals. The mice were randomized according to body weight and basal glycemia values following a 5±0.5 hour fasting period.
The test agent was dissolved in reverse osmosis water. 4-Hydroxyisoleucine was aliquoted and kept at 4° C. Control animals received reverse osmosis water twice daily (group 1). Mice from groups 2, 3 and 4 were treated twice daily with 4-hydroxyisoleucine (4-OH, compound 14a) at 100, 50, and 25 mg/kg, respectively. All groups were treated by oral gavage. Treatment commenced on Day 0 and ended on Day 77. Food consumption was measured daily and averaged on a weekly basis beginning one week before the start of treatment as shown in FIG. 16B. Similarly, food consumption was monitored during the treatment period and for 12 days after treatment was stopped as shown in FIGS. 16A and 16B.

[2] = tested on: diet induced obese (DIO) animals; assay: Fixed dose of 4-hydroxyisoleucine in diet induced obese (DIO) animals, 21 days; type: in vivo, C57BL/6 mice; conditions: for Significance vs controls (P; body weight and body weight gain): 2 way ANOVA, Bonferroni
Protocol: C57BL/6 mice were fed a high fat diet (60% fat) for 6 weeks. […] This regime was continued for the remaining 21 day period and the dose given was not adjusted as the mice lost body weight. This method of dosing was designed to mimic the human situation when the quantity of drug given is not adjusted with progressive body weight loss. […] Statistical analysis of the data was performed using a 2 way ANOVA followed by Bonferroni comparisons. Food intake was measured daily and then combined over a 7 day period to calculate total consumption during each week of drug administration.

[3] = tested on: Agouti mice; assay: Weight gain and food consumption in Agouti mice, 21 days; type: in vivo; conditions: 50 or 100 mg/kg orally twice daily
Protocol: Agouti mice, which are obese, diabetic and leptin resistant, were treated orally twice daily with 50 or 100 mg/kg of 4-[…] for 21 consecutive days. Body weight and food consumption were measured daily.

[4] = tested on: wistar obese rats; assay: Reversal of weight gain in rat model of diet-induced obesity, 28 days; conditions: 100 mg/kg twice daily oral
Description: The aim of this study was to evaluate the effect of chronic administration of 4-hydroxyisoleucine (4-OH, Compound 14a) on food consumption, tissue weight, and body weight gain of wistar obese rats.
A total of 30 animals were used in the study. The animals were acclimated for 1 week and fed standard chow. The animals were randomized into 3 groups of 10 animals each. Two groups were fed a high fat, high sucrose diet (HFHS), and 1 untreated control group was fed standard chow over a 28 day period. Animals were housed separately and food consumption was monitored daily.
In the following period of 28 days, the feeding regimen remained the same for the 3 groups; however, 1 group fed HFHS was treated with twice daily oral administration of 4-OH at 100 mg/kg per dose. For the 28 days of treatment, 4-OH was dissolved in reverse osmosis water, aliquoted, and kept at 4° C. Untreated animals received water twice daily.

[5] = tested on: obese mice; assay: Compound 22 and 4-hydroxyisoleucine on weight gain of obese mice, 21 days; type: in vivo, C57BL/6 mice; conditions: p<0.01
Protocol: The objective of the following study was to evaluate the effect of the lactone form of 4-hydroxyisoleucine (compound 22) on the weight gain of obese mice. 40 C57BL/6 mice were fed a high fat diet (60% of calories from fat) for 6 weeks in order to induce obesity. Animals were than randomized to 5 study groups of 8 mice each according to their body weight values. Thereafter, the animals were treated orally twice daily with either the water vehicle, 50 mg/kg of compound 22, 100 mg/kg of compound 22, 50 mg/kg of 4-hydroxyisoleucine or 100 mg/kg of 4-hydroxyisoleucine. The treatment lasted 21 days and body weight of mice were determined daily from day 1 to day 21 of the study.

[6] = tested on: Wistar rat model of diet-induced obesity; assay: Food consumption, weight gain and plasma triglycerides in Wistar rat model of diet-induced obesity, 28 days; type: in vivo, Wistar rats; conditions: for triglycerides plasma levels: 28 days
Description: A total of 60 animals were used in the study. The animals were distributed into 6 groups; 1 group was fed standard chow, 1 group was fed a high fat, high sucrose (HFHS) diet with 28 days treatment, 1 untreated control group was fed a HFHS diet, and 1 untreated group was fed a HFHS diet, but with caloric intake restricted to match the caloric intake of the 4-OH treated animals (pair-fed animals). A fifth group was fed a high fat, high sucrose (HFHS) diet with 28 days treatment and received an acute oral administration of 4-OH just prior to experimentation on Day 29 of the study, and a sixth group was fed a HFHS diet, but with caloric intake restricted to match the caloric intake of the 4-OH treated animals receiving an acute oral administration of 4-OH on Day 29 of the study (pair-fed animals). Each group was composed of 10 animals. […] Body weights were measured once weekly from week 1 to week 4 of the study. For the four weeks of treatment, the test article 4-OH was dissolved in reverse osmosis water. 4-OH aliquoted and kept at 4° C. […] Untreated animals received water twice daily.

[7] = tested on: HSL; assay: RT-PCR gene expression in adipocytes of treated rats: HSL; type: in vivo
Protocol: (§1) As the ex vivo studies on adipocytes indicated the lipolytic effect of drug was due to chronic exposure (see previous example), a role in gene regulation was assessed. RT-PCR was used to assess the expression of genes in the adipocytes from treated and control animals.

[8] = tested on: ATGL; assay: RT-PCR gene expression in adipocytes of treated rats: ATGL; type: in vivo
Protocol: as §1

[9] = tested on: FatB1; assay: RT-PCR gene expression in adipocytes of treated rats: FatB1; type: in vivo; conditions: data not shown
Protocol: as §1

[10] = tested on: CPT1; assay: RT-PCR gene expression in adipocytes of treated rats: CPT1; type: in vivo; conditions: data not shown
Protocol: as §1

[11] = HFHS diet, treated for 4 weeks (28 days)

For `C[C@@H]([C@H](C)O)[C@H](N)C(=O)O` [Compound 14a, (2S,3R,4S)-4-Hydroxyisoleucine], the body weight gain ([1]; 100 mg/kg twice daily, Day 28 to Day 84) was “significantly effective at controlling body weight gain”, the body weight gain ([1]; 100 mg/kg twice daily, Day 28 to Day 84, listed as 4-OH) was “sustained and highly significant” and the food consumption ([1]; 100 mg/kg twice daily, first week of treatment) was “slight decrease in food consumption”. The “body weight gain and food consumption after treatment was stopped” value ([1]; 100 mg/kg, first week following cessation of treatment) was “increase in the first week following cessation of treatment”, the tolerability of treatment ([1]; 25, 50 and 100 mg/kg twice daily, oral gavage, 77 days) was “well-tolerated” and the body weight gain ([1]; 50 and 100 mg/kg twice daily, first three weeks of treatment) was “moderation of weight gain was observed”. For the same molecule, the “Significance vs controls (P; body weight and body weight gain)” value ([2]; 75 mg/kg, Days 7 to 21) was “P < 0.05”, the “Significance vs controls (P; body weight and body weight gain)” value ([2]; 100 mg/kg, Days 7 to 21) was “P < 0.05” and the “Significance vs controls (P; body weight and body weight gain)” value ([2]; 125 mg/kg, Days 6 to 21) was “P < 0.05”. The body weight plateau ([2]; 150 mg/kg bid) was “approximately 30 gm”, the body weight reduction ([2]; 150 mg/kg bid) was 13 gm and the “visual appearance of animals” value ([2]; 150 mg/kg bid, day 21) was “visually indisingishable from lean mice of the same age”. The “Significance vs controls (P; body weight and body weight gain)” value ([2]; 150 mg/kg, Days 5 to 21) was “P < 0.05”, the body weight ([2]; 50, 75, 100, 125 and 150 mg/kg bid, oral, fixed dose, 21 days) was “dose-dependent reduction in body weight” and the “weight of fat tissues” value ([2]; end of treatment, epididymal fat (FIG. 17C)) was “concomitant reduction in the weight of fat tissues”. The food intake ([2]; highest doses, each of the 3 weeks, p<0.05) was “reduction in food intake at the highest doses administered”, the food intake [3] was “little effect on food intake” and the body weight gain ([3]; vs vehicle) was “significant decrease of body weight gain”. For the same molecule, the “epididymal and peri-renal adipose tissue” value [4] was “reduction of epididymal and peri-renal adipose tissue”, the food consumption [4] was “reduction in food consumption” and the “muscle, brown fat, and organ weight” value [4] was “not affected”. The tolerability of treatment ([4]; after 28 days HFHS) was “well tolerated”, the weight gain ([4]; after 28 days HFHS) was “reversal of weight gain” and the weight gain ([4]; after 28 days HFHS, listed as 4-OH) was “Moderation of weight gain was observed”. For the same molecule, the body weight ([5]; 100 mg/kg orally twice daily, 21 days, vs water control) was “significant reduction of body weight compared to the water control group”, the “white fat mass (epididymal fat)” value ([5]; 100 mg/kg, end of treatment) was “loss of the white fat mass (epididymal fat)” and the triglycerides plasma levels ([6]; 100 mg/kg twice daily, p<0.05) was “lower triglycerides plasma levels”. For the same molecule, the triglycerides plasma levels ([6]; 100 mg/kg twice daily, p<0.05, listed as 4-OH) was “significantly decreased compared to the respective pair fed groups”, the food consumption ([6]; 100 mg/kg twice daily, first week, vs HFHS control) was “slightly decreased” and the “weight gain after 28 days of treatment” value ([6]; 100 mg/kg twice daily, p<0.05) was “significantly decreased compared to the pair fed group and the HFHS control group”. For the same molecule, the “weight gain after 28 days of treatment” value ([6]; chronic 4-OH plus an acute oral administration on Day 29, p<0.05) was “significantly decreased compared to the respective pair-fed group and the HFHS control group”, the “expression of hormone sensitive lipase (HSL), increase” value [7] was 1.3-1.4 times and the “Increase (x times) in expression of HSL” value [7, 11] was 1.3 x times. The “expression of ATGL, increase” value [8] was “more than two times”, the “Increase (x times) in expression of ATGL” value [8, 11] was 2.6 x times and the “expression of FatB1” value [9] was “Upregulation”. For the same molecule, the “expression of CPT1” value [10] was “Upregulation”.
